According to patent US20100137305A1, “AMINOPYRIMIDINES USEFUL AS KINASE INHIBITORS” (VERTEX PHARMACEUTICALS INCORPORATED, priority 2008, published 2010):
pIC50, pKi: −log10 of the molar value. Read-outs that look alike come from different tables or passages of the source.

What was measured:
Colo205 cells = assay: Analysis of Cell Proliferation, 3H thymidine incorporation; type: cell-based; conditions: Homo sapiens
Protocol: Compounds were screened for their ability to inhibit cell proliferation using Colo205 cells obtained from ECACC and using the assay shown below.
Colo205 cells were seeded in 96 well plates and serially diluted compound was added to the wells in duplicate. Control groups included untreated cells, the compound diluent (0.1% DMSO alone) and culture medium without cells. The cells were then incubated for 72 or 96 hrs at 37C in an atmosphere of 5% CO2/95% humidity.
To measure proliferation, 3 h prior to the end of the experiment 0.5 μCi of 3H thymidine was added to each well. Cells were then harvested and the incorporated radioactivity counted on a Wallac microplate beta-counter. Dose response curves were calculated using either Prism 3.0 (GraphPad) or SoftMax Pro 4.3.1 LS (Molecular Devices) software.

Aurora-2 (Aurora A) = target: T1, Aurora-2 (Aurora A) (Homo sapiens, UniProt O14965); assay: Aurora-2 (Aurora A) Inhibition Assay, coupled enzyme assay; type: biochemical; conditions: 400 μM ATP, 30° C.; read-out: Aurora A kinase activity Ki
T1 sequence (O14965 1-403): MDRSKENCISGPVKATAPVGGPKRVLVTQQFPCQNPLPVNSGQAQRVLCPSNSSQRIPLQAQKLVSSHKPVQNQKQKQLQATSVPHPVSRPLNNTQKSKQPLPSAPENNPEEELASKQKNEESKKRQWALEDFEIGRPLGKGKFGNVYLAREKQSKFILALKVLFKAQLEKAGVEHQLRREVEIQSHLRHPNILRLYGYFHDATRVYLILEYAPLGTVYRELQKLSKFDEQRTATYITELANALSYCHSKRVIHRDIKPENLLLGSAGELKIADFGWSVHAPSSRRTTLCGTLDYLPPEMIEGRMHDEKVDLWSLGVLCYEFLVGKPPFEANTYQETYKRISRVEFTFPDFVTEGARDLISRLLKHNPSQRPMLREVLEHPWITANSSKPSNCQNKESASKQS
Protocol: Compounds were screened for their ability to inhibit Aurora-2 using a standard coupled enzyme assay (Fox et al., Protein Sci., (1998) 7, 2249). Assays were carried out in a mixture of 100 mM Hepes (pH7.5), 10 mM MgCl2, 1 mM DTT, 25 mM NaCl, 2.5 mM phosphoenolpyruvate, 300 μM NADH, 30 μg/ml pyruvate kinase and 10 μg/ml lactate dehydrogenase. Final substrate concentrations in the assay were 400 μM ATP (Sigma Chemicals) and 570 μM peptide (Kemptide, American Peptide, Sunnyvale, Calif.). Assays were carried out at 30° C. and in the presence of 40 nM Aurora-2.
An assay stock buffer solution was prepared containing all of the reagents listed above, with the exception of Aurora-2 and the test compound of interest. 55 μl of the stock solution was placed in a 96 well plate followed by addition of 2 μl of DMSO stock containing serial dilutions of the test compound (typically starting from a final concentration of 7.5 μM). The plate was preincubated for 10 minutes at 30° C. and the reaction initiated by addition of 10 μl of Aurora-2. Initial reaction rates were determined with a Molecular Devices SpectraMax Plus plate reader over a 10 minute time course. IC50 and Ki data were calculated from non-linear regression analysis using the Prism software package (GraphPad Prism version 3.0cx for Macintosh, GraphPad Software, San Diego Calif., USA).

Aurora-1 (Aurora B) = Aurora-1 (Aurora B) (Homo sapiens, UniProt Q96GD4); assay: Aurora-1 (Aurora B) Inhibition Assay (radiometric); type: biochemical; conditions: 800 μM ATP; read-out: Aurora B kinase activity Ki
Protocol: An assay buffer solution was prepared which consisted of 25 mM HEPES (pH 7.5), 10 mM MgCl2, 0.1% BSA and 10% glycerol. A 22 nM Aurora-B solution, also containing 1.7 mM DTT and 1.5 mM Kemptide (LRRASLG), was prepared in assay buffer. To 22 μL of the Aurora-B solution, in a 96-well plate, was added 2 μl of a compound stock solution in DMSO and the mixture allowed to equilibrate for 10 minutes at 25° C. The enzyme reaction was initiated by the addition of 16 μl stock [γ-^33P]-ATP Pi-ATP solution (˜20 nCi/μL) prepared in assay buffer, to a final assay concentration of 800 μM. The reaction was stopped after 3 hours by the addition of 16 μL 500 mM phosphoric acid and the levels of ^33P incorporation into the peptide substrate were determined by the following method.
A phosphocellulose 96-well plate (Millipore, Cat no. MAPHNOB50) was pre-treated with 100 μL of a 100 mM phosphoric acid prior to the addition of the enzyme reaction mixture (40 μL). The solution was left to soak on to the phosphocellulose membrane for 30 minutes and the plate subsequently washed four times with 200 μL of a 100 mM phosphoric acid. To each well of the dry plate was added 30 μL of Optiphase ‘SuperMix’ liquid scintillation cocktail (Perkin Elmer) prior to scintillation counting (1450 Microbeta Liquid Scintillation Counter, Wallac). Levels of non-enzyme catalyzed background radioactivity were determined by adding 16 μL of the 500 mM phosphoric acid to control wells, containing all assay components (which acts to denature the enzyme), prior to the addition of the [γ-^33P]-ATP solution. Levels of enzyme catalyzed ^33P incorporation were calculated by subtracting mean background counts from those measured at each inhibitor concentration. For each Ki determination 8 data points, typically covering the concentration range 0-10 μM compound, were obtained in duplicate (DMSO stocks were prepared from an initial compound stock of 10 mM with subsequent 1:2.5 serial dilutions). Ki values were calculated from initial rate data by non-linear regression using the Prism software package (Prism 3.0, Graphpad Software, San Diego, Calif.).

[1] = COLO 205, 96 h, 96 hours, read-out: IC50 cell proliferation after 96 hours
[2] = COLO 205, 72 h, 72 hours, read-out: IC50 cell proliferation after 72 hours

Sequence of Aurora-1 (Aurora B) (Q96GD4 whole entry): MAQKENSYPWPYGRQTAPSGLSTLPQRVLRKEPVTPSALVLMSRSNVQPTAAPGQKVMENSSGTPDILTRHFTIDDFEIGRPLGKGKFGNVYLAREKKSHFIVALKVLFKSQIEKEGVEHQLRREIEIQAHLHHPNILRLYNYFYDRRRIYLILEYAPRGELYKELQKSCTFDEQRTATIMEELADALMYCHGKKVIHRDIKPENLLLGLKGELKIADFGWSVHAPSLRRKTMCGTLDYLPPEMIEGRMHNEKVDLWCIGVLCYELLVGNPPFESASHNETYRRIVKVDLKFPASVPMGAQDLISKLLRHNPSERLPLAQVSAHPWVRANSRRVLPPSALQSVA

pIC50 (Colo205 cells; [1]) | pKi (Aurora-2 (Aurora A)) | pKi (Aurora-1 (Aurora B)) | pIC50 (Colo205 cells; [2]) | SMILES
6.70 to 7.30 | ≥ 8.00 | ≥ 8.00 |  | Cc1cc(Nc2cc(N3CCC(F)C3)nc(Sc3ccc(NC(=O)c4ccccc4Cl)cc3)n2)[nH]n1 (centres unmarked) [Compound I-35]
 | ≥ 8.00 | ≥ 8.00 | ≥ 7.60 | Cc1cc(Nc2cc(N3CC[C@@H](F)C3)nc(Sc3ccc(NC(=O)c4ccccc4C(F)(F)F)cc3)n2)[nH]n1 [Compound I-74]
 | ≥ 8.00 | 7.30 to 8.00 | ≥ 7.60 | Cc1cc(Nc2cc(N3CCC(N4CCN(C)CC4)CC3)nc(Sc3ccc(NC(=O)C4(C(F)(F)F)CC4)cc3)n2)[nH]n1 [Compound I-64]
≥ 7.30 | ≥ 8.00 | 7.30 to 8.00 |  | CCC(=O)Nc1ccc(Sc2nc(Nc3cc(C)n[nH]3)cc(N3CCC(O)(C(C)C)CC3)n2)cc1 [Compound I-58]
≥ 7.30 | ≥ 8.00 | 7.30 to 8.00 |  | CCC(=O)Nc1ccc(Sc2nc(Nc3ncc(C)s3)cc(N3CCC(N4CCCC4)CC3)n2)cc1 [Compound I-49]
6.70 to 7.30 | ≥ 8.00 | 7.30 to 8.00 | 6.90 to 7.60 | Cc1cc(Nc2cc(N3CCCC(F)(F)C3)nc(Sc3ccc(NC(=O)CC(F)(F)F)cc3)n2)[nH]n1 [Compound I-26]
6.70 to 7.30 | ≥ 8.00 | 7.30 to 8.00 |  | CCC(=O)Nc1ccc(Sc2nc(Nc3cc(C)[nH]n3)cc(N3CCC4(CC3)OCCO4)n2)cc1 [Compound I-15]
6.70 to 7.30 | ≥ 8.00 | ≥ 8.00 |  | Cc1cc(Nc2cc(N3CCC4(CCN(C)C4)CC3)nc(Sc3ccc(NC(=O)C4CC4)c(F)c3)n2)[nH]n1 [Compound I-32]
 | ≥ 8.00 | 7.30 to 8.00 | ≥ 7.60 | Cc1cnc(Nc2cc(N3CCC(N4CCN(C)CC4)CC3)nc(Sc3ccc(NC(=O)CC(F)(F)F)cc3)n2)s1 [Compound I-66]
 | ≥ 8.00 | 7.30 to 8.00 |  | Cc1cnc(Nc2cc(N3CC[C@@H](O)C3)nc(Sc3ccc(NC(=O)C4CC4)cc3)n2)s1 [Compound I-6]
≥ 7.30 | ≥ 8.00 | 7.30 to 8.00 | ≥ 7.60 | Cc1cnc(Nc2cc(N3CC4CCCNC4C3)nc(Sc3ccc(NC(=O)C4CC4)cc3)n2)s1 (centres unmarked) [Compound I-59]
≥ 7.30 | ≥ 8.00 | 7.30 to 8.00 |  | CCC(=O)Nc1ccc(Sc2nc(Nc3cc(C)n[nH]3)cc(N3CCC(O)(CC)CC3)n2)cc1 [Compound I-44]
 | ≥ 8.00 | ≥ 8.00 | 6.90 to 7.60 | Cc1cc(Nc2cc(N3CCC(F)C3)nc(Sc3ccc(NC(=O)c4ccccc4C(F)(F)F)cc3)n2)[nH]n1 (centres unmarked) [Compound I-76]
 | ≥ 8.00 | 7.30 to 8.00 | 6.90 to 7.60 | Cc1cc(Nc2cc(N3CCC(N4CCCC4)CC3)nc(Sc3ccc(NC(=O)CC4CCCC4)cc3)n2)n[nH]1 [Compound I-77]
 | ≥ 8.00 | 7.30 to 8.00 | 6.90 to 7.60 | Cc1cc(Nc2cc(N3CCC(F)(F)CC3)nc(Sc3ccc(NC(=O)CC(F)(F)F)cc3)n2)[nH]n1 [Compound I-84]
≥ 7.30 | ≥ 8.00 | 7.30 to 8.00 |  | CCC(=O)Nc1ccc(Sc2nc(Nc3cc(C)n[nH]3)cc(N3CCC(C(C)(C)OC)CC3)n2)cc1 [Compound I-45]
6.70 to 7.30 | ≥ 8.00 | 7.30 to 8.00 |  | Cc1cc(Nc2cc(N3CCC4(CC3)CCN(C(C)C)C4)nc(Sc3ccc(NC(=O)C4CC4)cc3)n2)[nH]n1 [Compound I-31]

pIC50 (Colo205 cells; [1]) | pKi (Aurora-2 (Aurora A)) | pKi (Aurora-1 (Aurora B)) | pIC50 (Colo205 cells; [2]) | SMILES
6.70 to 7.30 | ≥ 8.00 | 7.30 to 8.00 |  | CCC(=O)Nc1ccc(Sc2nc(Nc3cc(C)n[nH]3)cc(N3CC[C@H](NC)C3)n2)cc1 [Compound I-22]
≥ 7.30 | ≥ 8.00 | 7.30 to 8.00 |  | CCC(=O)Nc1ccc(Sc2nc(Nc3cc(C)n[nH]3)cc(N3CCC(N(C)C(C)(C)C)CC3)n2)cc1 [Compound I-47]
 | ≥ 8.00 | ≥ 8.00 | 6.90 to 7.60 | Cc1cc(Nc2cc(N3CCC4(CC3)OCCO4)nc(Sc3ccc(NC(=O)CC(F)(F)F)cc3)n2)[nH]n1 [Compound I-79]
6.70 to 7.30 | ≥ 8.00 | 7.30 to 8.00 |  | CCC(=O)Nc1ccc(Sc2nc(Nc3cc(C)n[nH]3)cc(N3CCC(N4CCCC4(C)C)CC3)n2)cc1 [Compound I-33]
 | ≥ 8.00 | ≥ 8.00 | ≥ 7.60 | Cc1cc(Nc2cc(N3CC[C@H](N(C)C)C3)nc(Sc3ccc(NC(=O)c4ccccc4C(F)(F)F)cc3)n2)[nH]n1 [Compound I-70]
 | ≥ 8.00 | 7.30 to 8.00 |  | Cc1cnc(Nc2cc(N3CC[C@H](OC(C)C)C3)nc(Sc3ccc(NC(=O)C4CC4)cc3)n2)s1 [Compound I-5]
6.70 to 7.30 | ≥ 8.00 | ≥ 8.00 |  | CCC(=O)Nc1ccc(Sc2nc(Nc3cc(C4CC4)n[nH]3)cc(N3CCC(F)C3)n2)cc1 (centres unmarked) [Compound I-20]
6.70 to 7.30 | ≥ 8.00 | 7.30 to 8.00 |  | CO[C@H]1CCN(c2cc(Nc3ncc(C)s3)nc(Sc3ccc(NC(=O)C4CC4)cc3)n2)C1 [Compound I-14]
6.70 to 7.30 | ≥ 8.00 | 7.30 to 8.00 |  | CCC(=O)Nc1ccc(Sc2nc(Nc3cc(C)n[nH]3)cc(N3CC[C@@H](NC)C3)n2)cc1 [Compound I-9]
 | ≥ 8.00 | 7.30 to 8.00 | ≥ 7.60 | Cc1cc(Nc2cc(N3CCC(N4CCN(C)CC4)CC3)nc(Sc3ccc(NC(=O)CC(F)(F)F)cc3)n2)[nH]n1 [Compound I-73]
6.70 to 7.30 | ≥ 8.00 | 7.30 to 8.00 |  | CCC(=O)Nc1ccc(Sc2nc(Nc3cc(C)n[nH]3)cc(N3CCC(C)(O)C3)n2)cc1 (centres unmarked) [Compound I-11]
6.70 to 7.30 | ≥ 8.00 | 7.30 to 8.00 |  | CCC(=O)Nc1ccc(Sc2nc(Nc3cc(C)n[nH]3)cc(N3CCC(C#N)CC3)n2)cc1 [Compound I-16]
≥ 7.30 | ≥ 8.00 | 7.30 to 8.00 |  | Cc1cc(Nc2cc(N3CCC4(CCN(C)C4)CC3)nc(Sc3ccc(NC(=O)C4CC4)cc3F)n2)[nH]n1 [Compound I-54]
 | ≥ 8.00 | ≥ 8.00 | ≥ 7.60 | Cc1cc(Nc2cc(N3CCC(N4CCOCC4)CC3)nc(Sc3ccc(NC(=O)C4(C(F)(F)F)CC4)cc3)n2)[nH]n1 [Compound I-67]
6.70 to 7.30 | ≥ 8.00 | 7.30 to 8.00 |  | CCC(=O)Nc1ccc(Sc2nc(Nc3cc(C)[nH]n3)cc(N3CCC(=O)CC3)n2)cc1 [Compound I-17]
 | ≥ 8.00 | 7.30 to 8.00 |  | CCC(=O)Nc1ccc(Sc2nc(Nc3cc(C)n[nH]3)cc(N3CCC(OC(C)(C)C)CC3)n2)cc1 [Compound I-85]
